Read-outs that look alike come from different tables or passages of the source. Blank lines part the entries; values can stand above or below the compound they belong to.
How the values were obtained:
LO-2 cells = experiment: Cytotoxicity assay (CCK8); format: cell-based, human; conditions: for IC50: Homo sapiens; for cell survival: up to 100 μM
Experimental: The normal human liver-derived cell line LO-2 were grown in DMEM culture medium supplemented with 10% FBS, penicillin (100 U/mL) and streptomycin ([…]). After culturing to 80% confluence, cells were digested and exactly 100 µL of cell suspension with a cell concentration of 10^4 cells/well was seeded in 96-well plates and incubated in a 5% CO2 humidified atmosphere at 37 °C for 12 h. Then the cells were incubated with 100 μL tested compounds of varying concentrations from 0.25 to 100 μM prepared in FBS-free culture medium for 24 h. Subsequently, CCK-8 was diluted 1:10 with DMEM culture and them was added into the adherent cells and incubated in 37 °C for 2 h. The absorbance at 450 nm was measured by using the multi-mode microplate reader. Cell viability can be calculated by A/A0 × 100% (A and A0 are the absorbance of experimental group and control group, respectively).

recombinant human S-COMT [1] = target: T1, recombinant human S-COMT (Homo sapiens, UniProt P21964); experiment: Inhibition kinetics of human S-COMT catalysed O-methylation of 3-BTD; format: biochemical; conditions: for Vmax: 200 μM SAM; for Inhibition type: with respect to 3-BTD (catechol site); for α: global fit of mixed inhibition model
T1 construct: made in house
T1 sequence (P21964 1-221 isoform P21964-2): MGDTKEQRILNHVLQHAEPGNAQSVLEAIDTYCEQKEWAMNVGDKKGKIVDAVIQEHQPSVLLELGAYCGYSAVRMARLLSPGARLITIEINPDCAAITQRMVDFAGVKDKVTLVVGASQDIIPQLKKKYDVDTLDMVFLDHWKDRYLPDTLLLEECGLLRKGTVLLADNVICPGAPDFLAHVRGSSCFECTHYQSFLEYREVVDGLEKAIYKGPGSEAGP

[2] = tested on: mitochondrial membrane potential of LO-2 cells; experiment: Mitochondrial membrane potential assay (JC-10, high-content imaging); format: cell-based, human; conditions: 24 h
Experimental: The cells were cultured as described in the Section 2.3. […] To assess the mitochondria membrane potential, JC-10 (5 μg/mL) was incubated with the cells for 30 min, and Hochest (10 μg/mL) was used to stain nuclei. After removal of culture medium and rinsing three times with PBS, cell imaging and quantitative analysis were performed by high-content imaging analysis (Molecular Devices® ImageXpress Micro 4, the USA).

recombinant human S-COMT [3] = target: T1, recombinant human S-COMT; experiment: COMT activity inhibition assay (enzymatic activity based fluorescence assay, 3-BTD substrate); format: biochemical
[4] = L02, LO-2 cells, 24 h, CCK8, read-out: concentration that led to a 50% decrease of cell viability
[5] = apparent Vmax for 3-BTD with 2.5 μM inhibitor
[6] = apparent Vmax for 3-BTD with 5.0 μM inhibitor
[7] = apparent Vmax for 3-BTD with 7.5 μM inhibitor
[8] = 2.0 μg/mL human S-COMT, 2.0 μM 3-BTD as substrate, 200 μM SAM, mean ± SE, read-out: IC50
[9] = 2.0 μg/mL human S-COMT, 2.0 μM 3-BTD as substrate, 200 μM SAM, mean ± SE

- IC50 (recombinant human S-COMT [3]; [9]): N.E.
Structure (SMILES): CC1(C)CCC2(C(=O)O)C(O)CC3(C)C(=CCC4C5(C)CC(O)C(O)C(C)(CO)C5CCC43C)C2C1 (stereo not shown) [Compound 4, Polygalacic acid]

- IC50 (recombinant human S-COMT [3]; [8]): 115 ± 11.6 µM
Structure (SMILES): CC1(C)[C@@H](O)CC[C@]2(C)[C@H]3C(=O)C=C4[C@@H]5C[C@@](C)(C(=O)O)CC[C@]5(C)CC[C@@]4(C)[C@]3(C)CC[C@@H]12 [Compound 6, Glycyrrhetinic acid]

- IC50 (recombinant human S-COMT [3]; [8]): 15.1 ± 1.35 µM
- fold lower inhibitory potency than oleanolic acid (1) (recombinant human S-COMT [3]; ratio of IC50 values): ~3 fold
Structure (SMILES): C[C@H]1[C@H](C)CC[C@]2(C(=O)O)CC[C@]3(C)C(=CC[C@@H]4[C@@]5(C)CC[C@H](O)C(C)(C)[C@@H]5CC[C@]43C)[C@H]12 [Compound 7, Ursolic acid]

- IC50 (recombinant human S-COMT [3]; [8]): 14.2 ± 0.87 µM
Structure (SMILES): C[C@H]1[C@H](C)CC[C@]2(C)CC[C@]3(C)C(=CC[C@@H]4[C@@]5(C)CC[C@@H](O)[C@](C)(C(=O)O)[C@@H]5CC[C@]43C)[C@H]12 [Compound 9, β-Boswellic acid]

- IC50 (recombinant human S-COMT [3]; [8]): 5.07 ± 0.087 µM
- Vmax (recombinant human S-COMT [1]; [5]): 9.97 ± 0.20 nmol/min/mg
- Vmax (recombinant human S-COMT [1]; [6]): 8.95 ± 0.22 nmol/min/mg
- Vmax (recombinant human S-COMT [1]; [7]): 6.06 ± 0.24 nmol/min/mg
- α (recombinant human S-COMT [1]; with respect to 3-BTD): 0.39
- Ki (recombinant human S-COMT [1]; global fit, with respect to 3-BTD, saturated SAM, read-out: Ki): 5.6 ± 0.33 µM
- Inhibition type (recombinant human S-COMT [1]): Mixed
Structure (SMILES): C=C(C)[C@@H]1CC[C@]2(C(=O)O)CC[C@]3(C)[C@H](CC[C@@H]4[C@@]5(C)CC[C@H](O)C(C)(C)[C@@H]5CC[C@]43C)[C@@H]12 [Compound 11, Betulinic acid]
- IC50 (LO-2 cells; [4]): > 100 µM
- cell survival (LO-2 cells; LO-2 cells, CCK8): 95%

- reduction in COMT-inhibitory potential compared to betulinic acid (11) (recombinant human S-COMT [3]): 50%
- IC50 (recombinant human S-COMT [3]; [8]): 9.38 ± 0.37 µM
Structure (SMILES): C=C(C)[C@@H]1CC[C@]2(C(=O)O)CC[C@]3(C)[C@H](CC[C@@H]4[C@@]5(C)CC[C@@H](O)C(C)(C)[C@@H]5CC[C@]43C)[C@@H]12 [Compound 15, Epibetulinic acid]

- IC50 (recombinant human S-COMT [3]): 3.23 ± 0.11 µM
Structure (SMILES): O=c1c(O)c(-c2ccc(O)c(O)c2)oc2cc(O)cc(O)c12 [Quercetin, reference compound]

Further lines, the compound ahead of its results:

Structure (SMILES): CC1(C)CC[C@]2(C(=O)O)CC[C@]3(C)C(=CC[C@@H]4[C@@]5(C)CC[C@H](O)C(C)(C)[C@@H]5CC[C@]43C)[C@@H]2C1 [Compound 1, Oleanic acid]
- IC50 (LO-2 cells; [4]): > 100 µM
- cell survival (LO-2 cells; LO-2 cells, CCK8): 95%
- Vmax (recombinant human S-COMT [1]; [5]): 8.45 ± 0.29 nmol/min/mg
- Vmax (recombinant human S-COMT [1]; [6]): 4.56 ± 0.084 nmol/min/mg
- Vmax (recombinant human S-COMT [1]; [7]): 2.20 ± 0.030 nmol/min/mg
- Inhibition type (recombinant human S-COMT [1]): Mixed
- effect on MMP ([2]; at 50 μM): did not display a decrease of MMP

Structure (SMILES): CC1(C)CC[C@]2(C(=O)O)CC[C@]3(C)C(=CC[C@@H]4[C@@]5(C)CC[C@H](O)[C@@](C)(CO)[C@@H]5CC[C@]43C)[C@@H]2C1 [Compound 2, Hederagenin]
- IC50 (recombinant human S-COMT [3]; [8]): 8.37 ± 0.46 µM

Structure (SMILES): CC1(C)CC[C@]2(C(=O)O)CC[C@]3(C)C(=CC[C@@H]4[C@@]5(C)C[C@@H](O)[C@H](O)C(C)(C)[C@@H]5CC[C@]43C)[C@@H]2C1 [Compound 3, Masline acid]
- IC50 (recombinant human S-COMT [3]): 10.6 ± 0.96 µM

Structure (SMILES): CC1(C)CC[C@]2(C)CC[C@]3(C)C(=CC[C@@H]4[C@@]5(C)CC[C@@H](O)[C@](C)(C(=O)O)[C@@H]5CC[C@]43C)[C@@H]2C1 [Compound 5, α-Boswellic acid]
- IC50 (recombinant human S-COMT [3]; [8]): 29.2 ± 1.65 µM

Structure (SMILES): C[C@H]1[C@H](C)CC[C@]2(C(=O)O)CC[C@]3(C)C(=CC[C@@H]4[C@@]5(C)C[C@@H](O)[C@H](O)[C@@](C)(CO)[C@@H]5CC[C@]43C)[C@H]12 [Compound 8, Asiatic acid]
- IC50 (recombinant human S-COMT [3]): 43.1 ± 5.92 µM

Structure (SMILES): C[C@H]1[C@H](C)CC[C@]2(C)CC[C@]3(C)C(=CC(=O)[C@@H]4[C@@]5(C)CC[C@@H](O)[C@](C)(C(=O)O)[C@@H]5CC[C@]43C)[C@H]12 [Compound 10, 11-Keto-β-Boswellic acid]
- IC50 (recombinant human S-COMT [3]; [9]): N.E.

Structure (SMILES): C=C(C)[C@@H]1CC[C@]2(C)CC[C@]3(C)[C@H](CC[C@@H]4[C@@]5(C)CC[C@H](O)C(C)(C)[C@@H]5CC[C@]43C)[C@@H]12 [Compound 12, Lupeol]
- IC50 (recombinant human S-COMT [3]; [8]): 7.93 ± 0.47 µM

Structure (SMILES): C=C(C)[C@@H]1CC[C@]2(CO)CC[C@]3(C)[C@H](CC[C@@H]4[C@@]5(C)CC[C@H](O)C(C)(C)[C@@H]5CC[C@]43C)[C@@H]12 [Compound 13, Betulin]
- IC50 (recombinant human S-COMT [3]): 8.86 ± 0.46 µM

Structure (SMILES): C=C(C)[C@@H]1CC[C@]2(C=O)CC[C@]3(C)[C@H](CC[C@@H]4[C@@]5(C)CC[C@H](O)C(C)(C)[C@@H]5CC[C@]43C)[C@@H]12 [Compound 14, Betulinic aldehyde]
- IC50 (recombinant human S-COMT [3]; [8]): 10 ± 0.63 µM

Structure (SMILES): C=C(C)[C@@H]1CC[C@]2(C(=O)O)CC[C@]3(C)[C@H](CC[C@@H]4[C@@]5(C)CC[C@H](O)[C@@](C)(CO)[C@@H]5CC[C@]43C)[C@@H]12 [Compound 16, 23-Hydroxybetulinic acid]
- IC50 (recombinant human S-COMT [3]; [8]): 31.4 ± 2.42 µM

Structure (SMILES): C=C(C)[C@@H]1CC[C@]2(C(=O)O)CC[C@]3(C)[C@H](CC[C@@H]4[C@@]5(C)CCC(=O)C(C)(C)[C@@H]5CC[C@]43C)[C@@H]12 [Compound 17, Betulonic acid]
- IC50 (recombinant human S-COMT [3]; [8]): 11.1 ± 0.51 µM

Structure (SMILES): CC1=C(O)C(=O)C=C2C1=CC=C1[C@@]2(C)CC[C@@]2(C)[C@@H]3C[C@](C)(C(=O)O)CC[C@]3(C)CC[C@]12C [Compound 18, Celastrol]
- IC50 (recombinant human S-COMT [3]): 3.89 ± 0.15 µM
- IC50 (LO-2 cells; L02, 24 h, read-out: concentration that led to a 50% decrease of cell viability, LO-2 cells, 24 h, CCK8): 2.4 µM
- fold more potent cytotoxicity than tolcapone (LO-2 cells; LO-2 cells, CCK8): 12 fold
- Ki (recombinant human S-COMT [1]): 3.5 ± 0.51 µM
- Vmax (recombinant human S-COMT [1]; [5]): 7.91 ± 0.16 nmol/min/mg
- Vmax (recombinant human S-COMT [1]; [6]): 4.39 ± 0.10 nmol/min/mg
- Vmax (recombinant human S-COMT [1]; [7]): 2.54 ± 0.047 nmol/min/mg
- α (recombinant human S-COMT [1]; with respect to 3-BTD): 0.20
- Inhibition type (recombinant human S-COMT [1]): Mixed

Structure (SMILES): Cc1c(O)c(O)cc2c1CC=C1C2(C)CCC2(C)C3CC(C)(C(=O)O)CCC3(C)CCC12C (stereo not shown) [Compound 19, Hydrocelastrol]
- IC50 (recombinant human S-COMT [3]): 12.6 ± 0.73 µM

Structure (SMILES): C[C@H]1C(=O)CC[C@@H]2[C@]1(C)CC[C@H]1[C@@]2(C)CC[C@@]2(C)[C@@H]3CC(C)(C)CC[C@]3(C)CC[C@]12C [Compound 20, Friedelin]
- IC50 (recombinant human S-COMT [3]; [9]): N.E.

Structure (SMILES): CCN(CC)C(=O)/C(C#N)=C/c1cc(O)c(O)c([N+](=O)[O-])c1 [Entacapone, entacapone, reference compound]
- IC50 (LO-2 cells; [4]): > 100 µM

Structure (SMILES): Oc1cc(O)c2c(c1)O[C@H](c1ccc(O)c(O)c1)[C@H](O)C2 [Epicatechin, reference compound]
- IC50 (recombinant human S-COMT [3]; [8]): 9.57 ± 0.55 µM

Structure (SMILES): Cc1ccc(C(=O)c2cc(O)c(O)c([N+](=O)[O-])c2)cc1 [Tolcapone, tolcapone, reference compound]
- IC50 (LO-2 cells; [4]): 28 to 38 µM
- reduction in membrane potential ([2]; 10 μM): 50%

Source: article PMC8158265, “Inhibition of catechol-O-methyltransferase by natural pentacyclic triterpenes: structure–activity relationships and kinetic mechanism” (Journal of Enzyme Inhibition and Medicinal Chemistry, 2021)
